Data: US20100062465A1, “Detection of Histone Deacetylase Inhibition” (priority 2006, published 2010)
Several values for one entry are separate records, joined by “and”; a condition that tells them apart may be missing. Identical values can stand only once. Counter-ions that a name gives are not always drawn.

What was measured:
PC3 cells [1] = experiment: 31P MRS of PC3 cell extracts (phosphocholine); format: cell-based, human; conditions: 24 h
Description: For MRS studies, PC3 cells were treated for 24 h with FSAHA at 2, 5, 7, 8, 9 and 10 μM in the presence of 1 mM BLT or with 1 mM BLT alone. […] The number of cells extracted was determined by counting a separate flask of cells. ^19F MR spectra of the water-soluble metabolites were recorded as above. Metabolite concentrations were determined by integration and comparison with the area of the external C6F6 reference, normalizing to cell number and correcting for saturation effects. Correction for saturation effects was achieved by also acquiring a quantitative inverse gated fully relaxed spectrum on two different samples and calculating the correction factors which need to be applied to the partially relaxed spectra. It was determined that the T1 relaxation of BLT is 1 s and that of C6F6 is 3 s. The fully relaxed spectrum was therefore acquired using a 90 deg. flip angle and a 15 s relaxation delay (5 times the longest T1). ^31P MR spectra were recorded on an Avance DRX500 Bruker spectrometer (Bruker Biospin Germany) using a 30 deg. flip angle and 3 s relaxation delay. […]

[2] = tested on: PC3 human prostate cancer cells; experiment: WST-1 cell proliferation assay; format: cell-based
Description: PC3 human prostate cancer cells were routinely cultured in DMEM/F12 (Gibco NY USA) supplemented with 10% FCS (Hyclone, Utah USA) and 10,000 U/mL penicillin 10,000 μg/mL streptomycin and […] amphtenicin B (Gibco, NY USA) at 37° C. in 5% CO2.
To assess the effect on cell proliferation of BLT the colorimetric WST-1 cell proliferation assay (Roche USA) was used and manufacturer instructions followed. Briefly, 20×10^3 cells/well were seeded in 96 well plates. Cells were then treated for 24 hours with BLT at 5 μM, 10 μM, 20 μM, 50 μM, 100 μM, 200 μM, 500 μM, 1 mM, 2 mM, 5 mM and 10 mM or with matched DMSO (1.20,000 to 1.10). Subsequently cells were incubated for 4 hours with the WST-1 cell proliferation reagent and absorbance read at 440 nm using a Tecan Freedom Evo liquid handler equipped with the SAFIRE monochromator-based microplate reader (Tecan U.S., NC, USA).
Note that controls were treated with DMSO in order to clearly identify effects which are due to the compound being investigated rather than its vehicle (DMSO). FSAHA dose was based on previous findings (Butler L M, Agus D B, Scher H I, et al. Suberoylanilide hydroxamic acid, an inhibitor of histone deacetylase, suppresses the growth of prostate cancer cells in vitro and in vivo. Cancer Res 2000 September 15;60(18):5165-70).

HDAC = experiment: Fluor de Lys fluorometric assay of HDAC activity in PC3 cells; format: cell-based, human; conditions: for HDAC activity (relative to controls): 24 h
Description: Briefly 20×10^3 cells/well were seeded in 96 well plates and incubated for 24 h with (a) 1 mM BLT (b) FSAHA at 2, 5, 10 μM (c) SAHA at 2, 5, 10 μM (d) FSAHA at 2, 5, 7, 8, 9, 10 μM in the presence of 1 mM BLT (e) FSAHA at 2, 5, 7, 8, 9, 10 μM in the presence of vehicle (DMSO). The Fluor de Lys substrate was then added for 1 h, medium removed, cells rinsed with PBS and incubated for 10 minutes with the Fluor-de-Lys developer, and fluorescence read at 460 nm using the Tecan microplate reader as above. Results were normalized to cell density as determined using the WST-1 assay in the same 96 well plate.

PC3 cells [3] = experiment: GC-MS analysis of TFA in extracellular medium; format: cell-based, human
Description: To assess build-up of TFA in medium, samples of extracellular medium were collected and analyzed using gas chromatography-mass spectroscopy (GC-MS). In order to be able to use standard capillary GC-MS, TFA had to be derivatized. This was done using a modification of the procedure of Scott et al. (Scott B F, Mactavish D, Spencer C, Strachan W M J, Muir D C G. Haloacetic acids in Canadian lake waters and precipitation. Environmental Science & Technology 2000;34:4266-72) as follows. One ml of sample, or TFA standard in medium, was treated with 20 mg NaCl, 60 μL HCl, and 30 μl each of 100 mM 1,3-dicyclohexylcarbohiimide (Sigma-Aldrich Chemical Co., MO. USA) and 2,4-difluoroaniline (Sigma-Aldrich Chemical Co., MO. USA) and adjusted to a final volume of 1.320 ml in ethyl acetate. Mixture was vortexed for 60 minutes at room temperature; an additional 50 mg of NaCl added and sample briefly vortexed. Following phase separation the organic layer was removed and stored. The aqueous phase was further extracted twice with 200 μl of ethyl acetate. All three ethyl acetate extracts were combined and treated with 50 μl 3M HCl and 50 μL saturated anhydrous sodium sulfate (Na2SO4), vortexed and another 20 mg of Na2SO4 added and mixed. The organic phase was then evaporated to dryness under a dry nitrogen gas stream. The residue was dissolved in 250 μL of toluene and transferred into sample vials for analysis. Three microliters of sample extract were analyzed using an Agilent 6890N GC coupled to 5973N MSD in splitless injection mode. TFA was resolved using a Supleco Omegawax 250 capillary column (30 m×0.25 mm). Column temperature was 100° C. for one minute, ramping to 230° C. at 25° C. per minute and then held at 230° C. for two minutes. Detection was performed in EI positive mode monitoring the m/z 225 ion.

[4] = PC3 control cells, 1 mM BLT alone
[5] = PC3 cells, 10 μM FSAHA in the presence of 1 mM BLT
[6] = 2 μM in the presence of 1 mM BLT
[7] = 5 μM in the presence of 1 mM BLT
[8] = 10 μM in the presence of 1 mM BLT

CC(C)(C)OC(=O)N[C@@H](CCCCNC(=O)C(F)(F)F)C(=O)O [BLT, Boc-Lys-TFA-OH]
Phosphocholine (PC) level (PC3 cells [1]; [4]): 7±1 fmol/cell and 7 fmol/cell | Effect on cell proliferation compared to matched DMSO controls ([2]; 5 μM to 10 mM, 24 hours): did not significantly affect cell proliferation | activity at 1000 µM ([2]; Homo sapiens, PC-3, 24-hour treatment with 1 mM BLT, read-out: Cell numbers, % of controls): 95 ± 4% | HDAC activity levels relative to DMSO-treated controls (HDAC; 24 hours, 1 mM): 102±9% | Level of TFA in cellular growth medium (PC3 cells [3]; [4]): 5 ± 0.4 µg/mL

O=C(CCCCCCC(=O)Nc1ccc(F)cc1)NO [FSAHA, 4-Fluorosuberanilohydroxamic acid]
Phosphocholine (PC) level (PC3 cells [1]; [5]): 16±2 fmol/cell and 16 fmol/cell and 15 fmol/cell | Cell proliferation relative to control ([2]; 2 μM): 87±5% | Cell proliferation relative to control [2, 6]: 86±1% | Cell proliferation relative to control ([2]; 5 μM): 79±3% | Cell proliferation relative to control [2, 7]: 77±7% | Cell proliferation relative to control ([2]; 10 μM): 66±6% | Cell proliferation relative to control [2, 8]: 63±2% | HDAC activity (relative to controls) (HDAC; 2 μM): 93±16% | HDAC activity (relative to controls) (HDAC; [6]): 88±12% | HDAC activity (relative to controls) (HDAC; 5 μM): 58±14% | HDAC activity (relative to controls) (HDAC; [7]): 69±9% | HDAC activity (relative to controls) (HDAC; 10 μM): 41±8% | HDAC activity (relative to controls) (HDAC; [8]): 53±5% and 53% | Average lowering of TFA in medium compared to controls (PC3 cells [3]; 10 μM FSAHA-treated PC3 cells): 1.6 µg/mL | Level of TFA in cellular growth medium (PC3 cells [3]; [5]): 3.4 ± 0.7 µg/mL | Lowering of TFA in medium calculated from the BLT increase (PC3 cells [3]; assuming all TFA from BLT cleavage is removed into the medium, 10 μM FSAHA): 1.3 µg/mL
